Calls of active or inactive are those of the source. The rule behind the calls is not given here.
biological target: methionyl-tRNA synthetase (Trypanosoma brucei brucei) (UniProt Q38C91); experiment: inhibition of trypanosome methionyl-tRNA synthetase – biochemical, fluorescence polarization, orthogonal assay for T. brucei MetRS inhibitor project, dose response (AID 651989)
Sequence (Q38C91 1-773): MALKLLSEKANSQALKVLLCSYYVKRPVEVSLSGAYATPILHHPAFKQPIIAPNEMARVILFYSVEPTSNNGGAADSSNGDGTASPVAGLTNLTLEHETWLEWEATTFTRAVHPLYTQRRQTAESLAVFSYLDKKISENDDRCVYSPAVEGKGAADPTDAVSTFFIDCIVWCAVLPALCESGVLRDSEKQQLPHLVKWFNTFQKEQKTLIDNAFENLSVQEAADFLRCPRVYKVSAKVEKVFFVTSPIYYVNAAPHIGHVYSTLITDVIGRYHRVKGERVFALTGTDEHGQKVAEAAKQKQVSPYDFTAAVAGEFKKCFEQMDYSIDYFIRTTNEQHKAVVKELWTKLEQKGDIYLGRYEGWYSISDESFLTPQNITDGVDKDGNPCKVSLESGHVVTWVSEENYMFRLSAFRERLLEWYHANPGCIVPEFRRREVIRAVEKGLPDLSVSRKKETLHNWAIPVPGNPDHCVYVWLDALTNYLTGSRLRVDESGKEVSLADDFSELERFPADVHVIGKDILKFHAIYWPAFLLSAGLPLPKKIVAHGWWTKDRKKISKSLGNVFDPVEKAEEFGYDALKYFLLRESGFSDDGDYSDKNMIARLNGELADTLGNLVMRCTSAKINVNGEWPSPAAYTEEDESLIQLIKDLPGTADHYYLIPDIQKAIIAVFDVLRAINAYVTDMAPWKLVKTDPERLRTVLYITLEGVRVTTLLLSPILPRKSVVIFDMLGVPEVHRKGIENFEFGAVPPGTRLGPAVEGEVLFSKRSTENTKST

IC50, inactive:
COc1ccc(CC(=O)OCC(=O)Nc2ccc(Br)cc2)cc1 > 119 µM, O=C(OCC(=O)c1c[nH]c2ccccc12)c1ccc(OC(F)F)cc1 > 119 µM, N#Cc1ccccc1CSc1nc2ncc(Br)cc2[nH]1 > 119 µM, Clc1ccccc1-c1ccc2ncnc(NCc3ccc4c(c3)OCO4)c2c1, N#Cc1ccccc1CSc1ccc(-c2nc3ccccc3[nH]2)cn1 > 119 µM, Cc1cc(Cl)ccc1OCCCC(=O)NNC(=O)c1ccccc1O > 119 µM, COc1ccc(NC(=O)COC(=O)CCCOc2ccc(Cl)cc2Cl)cc1 > 119 µM, COc1cc(OC)c(OC)cc1/C=N/Nc1nc2ccccc2[nH]1 > 119 µM, Cc1cc2c(c(=O)n1CC1CCCO1)C(c1ccc3c(c1)OCO3)C(C#N)=C(N)O2 (stereo not drawn) > 119 µM, CO/N=C(\c1nonc1N)N1CCN(c2ccc(Cl)cc2[N+](=O)[O-])CC1 > 119 µM, O=C(NCc1cc(Br)cc(Br)c1OC(=O)c1ccccc1[N+](=O)[O-])c1ccccc1 > 119 µM, Cc1ccc(C(=O)Nn2c(O)c(C=C3N=c4ccccc4=N3)sc2=S)cc1 > 119 µM, O=C(Cc1ccc(Br)cc1)NNC(=O)Nc1ccc(Cl)cc1 > 119 µM

Reference: PubChem BioAssay AID651989 (The Scripps Research Institute Molecular Screening Center, 2013)
